From US12077503B2, “Substituted cyclic amides and their use as herbicides” (FMC CORPORATION, priority 2015, dated 2024)

Experiments:
Assay type in all cases: in vivo
[1] = tested on: velvetleaf (Abutilon theophrasti); assay: Test G Post-Emergence Protocol; details: Abutilon theophrasti, post-emergence, 312 h
Summary of the method: (§1)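 Scores run 0 (no damage) to 100 (total damage) and were taken 13 days after spraying. Plants had been raised in pots for 8 days under glasshouse control (24/16 °C, 14 h photoperiod, 65% humidity) and then treated at 15.625, 62.5 or 250 g/ha.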

[2] = tested on: redroot pigweed (Amaranthus retroflexus); assay: Test G Post-Emergence Protocol; details: Amaranthus retroflexus, post-emergence, 312 h
Summary of the method: as §1

[3] = tested on: barnyardgrass (Echinochloa crus-galli); assay: Test G Post-Emergence Protocol; details: Echinochloa crus-galli, post-emergence, 312 h
Summary of the method: as §1

corn (Zea mays) [4] = assay: Test G Post-Emergence Protocol; details: Zea mays, post-emergence, 312 h
Summary of the method: as §1

[5] = tested on: giant foxtail (Setaria faberi); assay: Test G Post-Emergence Protocol; details: Setaria faberi, post-emergence, 312 h
Summary of the method: as §1

[6] = tested on: ivy-leaved morning glory (Ipomoea hederacea); assay: Test G Post-Emergence Protocol; details: Ipomoea, post-emergence, 312 h
Summary of the method: as §1

[7] = tested on: velvetleaf (Abutilon theophrasti); assay: Test G Pre-Emergence Protocol; details: Abutilon theophrasti, pre-emergence, 312 h, evaluated after 13 days
Summary of the method: (§2)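 Pots of seeds in standard soil were grown for one day in a glasshouse (24/16 °C day/night, 14 h light, 65% humidity), then sprayed with compound in acetone/water 50:50 with 0.5% Tween 20 at 15.625, 62.5 or 250 g/ha. Damage was scored after 13 days on a 0 (none) to 100 (total) scale.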

[8] = tested on: redroot pigweed (Amaranthus retroflexus); assay: Test G Pre-Emergence Protocol; details: Amaranthus retroflexus, pre-emergence, 312 h, evaluated after 13 days
Summary of the method: as §2

[9] = tested on: barnyardgrass (Echinochloa crus-galli); assay: Test G Pre-Emergence Protocol; details: Echinochloa crus-galli, pre-emergence, 312 h, evaluated after 13 days
Summary of the method: as §2

corn (Zea mays) [10] = assay: Test G Pre-Emergence Protocol; details: Zea mays, pre-emergence, 312 h, evaluated after 13 days
Summary of the method: as §2

[11] = tested on: giant foxtail (Setaria faberi); assay: Test G Pre-Emergence Protocol; details: Setaria faberi, pre-emergence, 312 h, evaluated after 13 days
Summary of the method: as §2

[12] = tested on: ivy-leaved morning glory (Ipomoea hederacea); assay: Test G Pre-Emergence Protocol; details: Ipomoea, pre-emergence, 312 h, evaluated after 13 days
Summary of the method: as §2

CSc1nc(N)cc(NC(=O)[C@@H]2C(=O)N(C)C[C@H]2c2ccc(C(F)(F)F)cc2)n1 (racemic) [Compound 1644]
pest or weed control at 15.625 g/ha ([1]; 15.625 g ai/ha, evaluated after 13 days (100=total damage to plant; 0=no damage to plant), read-out: Velvetleaf damage rating): 0% | pest or weed control at 62.5 g/ha ([1]; 62.5 g ai/ha, evaluated after 13 days, read-out: Velvetleaf damage rating (100=total damage to plant; 0=no damage to plant)): 0% | pest or weed control at 250 g/ha ([1]; 250 g ai/ha, evaluated after 13 days, read-out: damage to plant, Velvetleaf (100=total damage to plant; 0=no damage to plant)): 0% | pest or weed control at 15.625 g/ha ([2]; 15.625 g ai/ha, evaluated after 13 days (100=total damage to plant; 0=no damage to plant), read-out: Pigweed, Redroot damage rating): 0% | pest or weed control at 62.5 g/ha ([2]; 62.5 g ai/ha, evaluated after 13 days, read-out: Pigweed, Redroot damage rating (100=total damage to plant; 0=no damage to plant)): 0% | pest or weed control at 250 g/ha ([2]; 250 g ai/ha, evaluated after 13 days, read-out: damage to plant, Pigweed, Redroot (100=total damage to plant; 0=no damage to plant)): 0% | pest or weed control at 15.625 g/ha ([3]; 15.625 g ai/ha, evaluated after 13 days (100=total damage to plant; 0=no damage to plant), read-out: Barnyardgrass damage rating): 0% | pest or weed control at 62.5 g/ha ([3]; 62.5 g ai/ha, evaluated after 13 days, read-out: Barnyardgrass damage rating (100=total damage to plant; 0=no damage to plant)): 0% | pest or weed control at 250 g/ha ([3]; 250 g ai/ha, evaluated after 13 days, read-out: damage to plant, Barnyardgrass (100=total damage to plant; 0=no damage to plant)): 20% | plant injury at 15.625 g/ha (corn (Zea mays) [4]; 15.625 g ai/ha, evaluated after 13 days (100=total damage to plant; 0=no damage to plant), read-out: Corn damage rating): 0% | plant injury at 62.5 g/ha (corn (Zea mays) [4]; 62.5 g ai/ha, evaluated after 13 days, read-out: Corn damage rating (100=total damage to plant; 0=no damage to plant)): 0% | plant injury at 250 g/ha (corn (Zea mays) [4]; 250 g ai/ha, evaluated after 13 days, read-out: damage to plant, Corn (100=total damage to plant; 0=no damage to plant)): 0% | pest or weed control at 15.625 g/ha ([5]; 15.625 g ai/ha, evaluated after 13 days (100=total damage to plant; 0=no damage to plant), read-out: Foxtail, Giant damage rating): 0% | pest or weed control at 62.5 g/ha ([5]; 62.5 g ai/ha, evaluated after 13 days, read-out: Foxtail, Giant damage rating (100=total damage to plant; 0=no damage to plant)): 20% | pest or weed control at 250 g/ha ([5]; 250 g ai/ha, evaluated after 13 days, read-out: damage to plant, Foxtail, Giant (100=total damage to plant; 0=no damage to plant)): 30% | pest or weed control at 15.625 g/ha ([6]; 15.625 g ai/ha, evaluated after 13 days (100=total damage to plant; 0=no damage to plant), read-out: Morningglory, Ivy-leaved damage rating): 0% | pest or weed control at 62.5 g/ha ([6]; 62.5 g ai/ha, evaluated after 13 days, read-out: Morningglory, Ivy-leaved damage rating (100=total damage to plant; 0=no damage to plant)): 10% | pest or weed control at 250 g/ha ([6]; 250 g ai/ha, evaluated after 13 days, read-out: damage to plant, Morningglory, Ivy-leaved (100=total damage to plant; 0=no damage to plant)): 40% | pest or weed control at 15.625 g/ha ([7]; 15.625 g ai/ha, read-out: Velvetleaf damage rating (100=total damage to plant; 0=no damage to plant)): 0% | pest or weed control at 62.5 g/ha ([7]; 62.5 g ai/ha, 100=total damage to plant, 0=no damage to plant, read-out: plant damage rating, Velvetleaf): 0% | pest or weed control at 250 g/ha ([7]; 250 g ai/ha, read-out: Velvetleaf damage rating (100=total damage to plant; 0=no damage to plant)): 0% | pest or weed control at 15.625 g/ha ([8]; 15.625 g ai/ha, read-out: Pigweed, Redroot damage rating (100=total damage to plant; 0=no damage to plant)): 0% | pest or weed control at 62.5 g/ha ([8]; 62.5 g ai/ha, 100=total damage to plant, 0=no damage to plant, read-out: plant damage rating, Pigweed, Redroot): 0% | pest or weed control at 250 g/ha ([8]; 250 g ai/ha, read-out: Pigweed, Redroot damage rating (100=total damage to plant; 0=no damage to plant)): 0% | pest or weed control at 15.625 g/ha ([9]; 15.625 g ai/ha, read-out: Barnyard grass damage rating (100=total damage to plant; 0=no damage to plant)): 0% | pest or weed control at 62.5 g/ha ([9]; 62.5 g ai/ha, 100=total damage to plant, 0=no damage to plant, read-out: plant damage rating, Barnyardgrass): 0% | pest or weed control at 250 g/ha ([9]; 250 g ai/ha, read-out: Barnyardgrass damage rating (100=total damage to plant; 0=no damage to plant)): 0% | plant injury at 15.625 g/ha (corn (Zea mays) [10]; 15.625 g ai/ha, read-out: Corn damage rating (100=total damage to plant; 0=no damage to plant)): 0% | plant injury at 62.5 g/ha (corn (Zea mays) [10]; 62.5 g ai/ha, 100=total damage to plant, 0=no damage to plant, read-out: plant damage rating, Corn): 0% | plant injury at 250 g/ha (corn (Zea mays) [10]; 250 g ai/ha, read-out: Corn damage rating (100=total damage to plant; 0=no damage to plant)): 0% | pest or weed control at 15.625 g/ha ([11]; 15.625 g ai/ha, read-out: Foxtail, Giant damage rating (100=total damage to plant; 0=no damage to plant)): 0% | pest or weed control at 62.5 g/ha ([11]; 62.5 g ai/ha, 100=total damage to plant, 0=no damage to plant, read-out: plant damage rating, Foxtail, Giant): 0% | pest or weed control at 250 g/ha ([11]; 250 g ai/ha, read-out: Foxtail, Giant damage rating (100=total damage to plant; 0=no damage to plant)): 0% | pest or weed control at 15.625 g/ha ([12]; 15.625 g ai/ha, read-out: Morning-glory, Ivy-leaved damage rating (100=total damage to plant; 0=no damage to plant)): 0% | pest or weed control at 62.5 g/ha ([12]; 62.5 g ai/ha, 100=total damage to plant, 0=no damage to plant, read-out: plant damage rating, Morningglory, Ivy-leaved): 0% | pest or weed control at 250 g/ha ([12]; 250 g ai/ha, read-out: Morningglory, Ivy-leaved damage rating (100=total damage to plant; 0=no damage to plant)): 0%
